# What was measured:
# Assay in all cases: cells
# Format in all cases: functional, cell-based, Homo sapiens
# [1] = system: SNU-387
# Description: SANGER: Inhibition of human SNU-387 cell growth in a cell viability assay.
# [2] = system: HSC-3
# Description: SANGER: Inhibition of human HSC-3 cell growth in a cell viability assay.
# [3] = system: ABC-1;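 also: growth inhibition of human ABC-1 cells, read out by a cell viability assay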
# Description: SANGER: Inhibition of human ABC-1 cell growth in a cell viability assay.
# [4] = system: J82;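 also: growth inhibition of J82 cells, read out with a cell viability assay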
# Description: SANGER: Inhibition of human J82 cell growth in a cell viability assay.
# [5] = system: H-EMC-SS
# Description: SANGER: Inhibition of human H-EMC-SS cell growth in a cell viability assay.
# [6] = system: OC-314
# Description: SANGER: Inhibition of human OC-314 cell growth in a cell viability assay.
# [7] = system: SW837;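 also: growth inhibition of SW837 cells, determined with a cell viability assay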
# Description: SANGER: Inhibition of human SW837 cell growth in a cell viability assay.
# [8] = system: VMRC-RCZ;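 also: growth inhibition measured with a cell viability assay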
# Description: SANGER: Inhibition of human VMRC-RCZ cell growth in a cell viability assay.
# [9] = system: C-33-A;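 also: cell viability assay measuring growth inhibition of C-33-A cells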
# Description: SANGER: Inhibition of human C-33-A cell growth in a cell viability assay.
# [10] = system: AN3-CA;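 also: growth inhibition of human AN3-CA cells measured by a cell viability assay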
# Description: SANGER: Inhibition of human AN3-CA cell growth in a cell viability assay.
# [11] = system: MC-IXC;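 also: growth inhibition of MC-IXC cells, read out with a cell viability assay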
# Description: SANGER: Inhibition of human MC-IXC cell growth in a cell viability assay.
# [12] = system: MKN-1;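 also: growth inhibition of human MKN1 cells, read out by a cell viability measurement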
# Description: SANGER: Inhibition of human MKN1 cell growth in a cell viability assay.
# [13] = system: DK-MG;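 also: growth inhibition of DK-MG cells, read out with a cell viability assay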
# Description: SANGER: Inhibition of human DK-MG cell growth in a cell viability assay.
# [14] = system: HT-1080
# Description: SANGER: Inhibition of human HT-1080 cell growth in a cell viability assay.
# [15] = system: SW1783;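 also: cell growth inhibition measured with a viability assay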
# Description: SANGER: Inhibition of human SW1783 cell growth in a cell viability assay.
# [16] = system: DBTRG-05MG;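 also: cell viability assay measuring growth inhibition of human DBTRG-05MG cells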
# Description: SANGER: Inhibition of human DBTRG-05MG cell growth in a cell viability assay.
# [17] = system: NCI-H292;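 also: growth inhibition of NCI-H292 cells, read out with a cell viability assay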
# Description: SANGER: Inhibition of human NCI-H292 cell growth in a cell viability assay.
# [18] = system: RT-112
# Description: SANGER: Inhibition of human RT-112 cell growth in a cell viability assay.
# [19] = system: HOS;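 also: growth inhibition of human HOS cells, read out with a cell viability assay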
# Description: SANGER: Inhibition of human HOS cell growth in a cell viability assay.
# [20] = system: A2058;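 also: reduction of A2058 cell growth, read out with a viability assay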
# Description: SANGER: Inhibition of human A2058 cell growth in a cell viability assay.
# [21] = system: HuO9;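 also: growth inhibition of HuO9 cells, read out with a cell viability assay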
# Description: SANGER: Inhibition of human HuO9 cell growth in a cell viability assay.
# [22] = system: COLO-680N;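 also: cell viability assay used to measure inhibition of COLO-680N cell growth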
# Description: SANGER: Inhibition of human COLO-680N cell growth in a cell viability assay.
# [23] = system: UACC-893
# Description: SANGER: Inhibition of human UACC-893 cell growth in a cell viability assay.
# [24] = system: NCI-H2029;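 also: Read-out is a viability assay on the cultured cells, and IC50 is the concentration that suppresses cell growth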
# Description: SANGER: Inhibition of human NCI-H2029 cell growth in a cell viability assay.
# [25] = system: PANC-08-13;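 also: cell growth inhibition, measured with a cell viability assay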
# Description: SANGER: Inhibition of human PANC-08-13 cell growth in a cell viability assay.
# [26] = system: HT-3;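 also: growth inhibition measured with a cell viability readout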
# Description: SANGER: Inhibition of human HT-3 cell growth in a cell viability assay.
# [27] = system: BT-20;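 also: cell viability assay measuring suppression of growth in human BT-20 cells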
# Description: SANGER: Inhibition of human BT-20 cell growth in a cell viability assay.
# [28] = system: FaDu;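 also: cell viability readout of growth inhibition in FaDu cells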
# Description: SANGER: Inhibition of human FADU cell growth in a cell viability assay.
# [29] = system: HCC38;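 also: cell viability assay on the human HCC38 cell line, with IC50 marking the concentration that inhibits cell growth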
# Description: SANGER: Inhibition of human HCC38 cell growth in a cell viability assay.
# [30] = system: NCI-H1563;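 also: growth inhibition of human NCI-H1563 cells, read out with a cell viability assay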
# Description: SANGER: Inhibition of human NCI-H1563 cell growth in a cell viability assay.
# [31] = system: CP50-MEL-B;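 also: growth inhibition of the human cell line, measured with a cell viability read-out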
# Description: SANGER: Inhibition of human CP50-MEL-B cell growth in a cell viability assay.
# [32] = system: BCPAP;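 also: growth inhibition of BCPAP cells, read out in a cell viability assay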
# Description: SANGER: Inhibition of human BCPAP cell growth in a cell viability assay.
# [33] = system: 786-0
# Description: SANGER: Inhibition of human 786-0 cell growth in a cell viability assay.
# [34] = system: MHH-ES-1;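 also: cell growth inhibition measured by a cell viability assay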
# Description: SANGER: Inhibition of human MHH-ES-1 cell growth in a cell viability assay.
# [35] = system: BHY;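 also: cell growth inhibition read out by a viability assay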
# Description: SANGER: Inhibition of human BHY cell growth in a cell viability assay.
# [36] = system: DOK;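 also: cell viability assay read-out, values reflect inhibition of cell growth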
# Description: SANGER: Inhibition of human DOK cell growth in a cell viability assay.
# [37] = system: A-431;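 also: growth inhibition of A-431 cells, determined with a cell viability read-out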
# Description: SANGER: Inhibition of human A431 cell growth in a cell viability assay.
# [38] = system: NCI-H2052;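 also: growth inhibition of NCI-H2052 cells, read out with a cell viability assay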
# Description: SANGER: Inhibition of human NCI-H2052 cell growth in a cell viability assay.
# [39] = system: COLO-679
# Description: SANGER: Inhibition of human COLO-679 cell growth in a cell viability assay.
# [40] = system: CHL-1;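 also: cell growth inhibition, read out with a cell viability assay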
# Description: SANGER: Inhibition of human CHL-1 cell growth in a cell viability assay.
# [41] = system: A204;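 also: growth inhibition of human A204 cells, read out with a cell viability assay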
# Description: SANGER: Inhibition of human A204 cell growth in a cell viability assay.
# [42] = system: HTC-C3;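 also: inhibition of cell growth, read out with a cell viability assay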
# Description: SANGER: Inhibition of human HTC-C3 cell growth in a cell viability assay.
compound,measurement,setting,value
CISPLATIN,IC50,[1]; snu-387,26.1 µM
same,IC50,[2]; hsc-3,21.9 µM
same,IC50,[3]; abc-1,3.61 µM
same,IC50,[4]; j82,5.1 µM
same,IC50,[5]; h-emc-ss,21.2 µM
same,IC50,[6]; oc-314,14 µM
same,IC50,[7]; sw837,190 µM
same,IC50,[8]; vmrc-rcz,298 µM
same,IC50,[9]; c-33-a,9.11 µM
same,IC50,[10]; an3-ca,9.94 µM
same,IC50,[11]; mc-ixc,1.68 µM
same,IC50,[12]; mkn-1,42.1 µM
same,IC50,[13]; dk-mg,137 µM
same,IC50,[14]; ht-1080,23.9 µM
same,IC50,[15]; sw1783,23.3 µM
same,IC50,[16]; dbtrg-05mg,15.9 µM
same,IC50,[17]; nci-h292,364 µM
same,IC50,[18]; rt-112,14.3 µM
same,IC50,[19]; hos,2.56 µM
same,IC50,[20]; a2058,17.5 µM
same,IC50,[21]; huo9,38.7 µM
same,IC50,[22]; colo-680n,23.6 µM
same,IC50,[23]; uacc-893,26.1 µM
same,IC50,[24]; nci-h2029,961 µM
same,IC50,[25]; panc-08-13,22.5 µM
same,IC50,[26]; ht-3,5.04 µM
same,IC50,[27]; bt-20,213 µM
same,IC50,[28]; fadu,8.92 µM
same,IC50,[29]; hcc38,160 µM
same,IC50,[30]; nci-h1563,146 µM
same,IC50,[31]; cp50-mel-b,217 µM
same,IC50,[32]; bcpap,228 µM
same,IC50,[33],4.47 µM
same,IC50,[34]; mhh-es-1,55 µM
same,IC50,[35]; bhy,49.3 µM
same,IC50,[36]; dok,12.5 µM
same,IC50,[37]; a-431,572 µM
same,IC50,[38]; nci-h2052,166 µM
same,IC50,[39]; colo-679,765 µM
same,IC50,[40]; chl-1,99.2 µM
same,IC50,[41]; a204,64.4 µM
same,IC50,[42]; htc-c3,4.49 µM
COc1cc2c(Nc3ccc(NC(=O)c4ccccc4)cc3)ncnc2cc1OCCCN1CCOCC1,IC50,"[1]; Homo sapiens, SNU-387",> 4 µM
same,IC50,"[2]; Homo sapiens, HSC-3",3.37 µM
same,IC50,"[3]; Homo sapiens, ABC-1",1.4 µM
same,IC50,"[4]; Homo sapiens, J82",> 4 µM
same,IC50,"[5]; Homo sapiens, H-EMC-SS",> 4 µM
same,IC50,"[6]; Homo sapiens, OC-314",> 4 µM
same,IC50,"[7]; Homo sapiens, SW837",> 4 µM
same,IC50,"[8]; Homo sapiens, VMRC-RCZ",> 4 µM
same,IC50,"[9]; Homo sapiens, C-33-A",> 4 µM
same,IC50,"[10]; Homo sapiens, AN3-CA",> 4 µM
same,IC50,"[11]; Homo sapiens, MC-IXC",> 4 µM
same,IC50,"[12]; Homo sapiens, MKN-1",> 4 µM
same,IC50,"[13]; Homo sapiens, DK-MG",> 4 µM
same,IC50,"[14]; Homo sapiens, HT-1080",> 4 µM
same,IC50,"[15]; Homo sapiens, SW1783",> 4 µM
same,IC50,"[16]; Homo sapiens, DBTRG-05MG",> 4 µM
same,IC50,"[17]; Homo sapiens, NCI-H292",1.7 µM
same,IC50,"[18]; Homo sapiens, RT-112",2.66 µM
same,IC50,"[19]; Homo sapiens, HOS",> 4 µM
same,IC50,"[20]; Homo sapiens, A2058",> 4 µM
same,IC50,"[21]; Homo sapiens, HuO9",> 4 µM
same,IC50,"[22]; Homo sapiens, COLO-680N",> 4 µM
same,IC50,"[23]; Homo sapiens, UACC-893",> 4 µM
same,IC50,"[24]; Homo sapiens, NCI-H2029",> 4 µM
same,IC50,"[25]; Homo sapiens, PANC-08-13",> 4 µM
same,IC50,"[26]; Homo sapiens, HT-3",> 4 µM
same,IC50,"[27]; Homo sapiens, BT-20",> 4 µM
same,IC50,"[28]; Homo sapiens, FaDu",> 4 µM
same,IC50,"[29]; Homo sapiens, HCC38",> 4 µM
same,IC50,"[30]; Homo sapiens, NCI-H1563",> 4 µM
same,IC50,"[31]; Homo sapiens, CP50-MEL-B",> 4 µM
same,IC50,"[32]; Homo sapiens, BCPAP",> 4 µM
same,IC50,[33]; Homo sapiens,> 4 µM
same,IC50,"[34]; Homo sapiens, MHH-ES-1",2.13 µM
same,IC50,"[35]; Homo sapiens, BHY",> 4 µM
same,IC50,"[36]; Homo sapiens, DOK",> 4 µM
same,IC50,"[37]; Homo sapiens, A-431",> 4 µM
same,IC50,"[38]; Homo sapiens, NCI-H2052",> 4 µM
same,IC50,"[39]; Homo sapiens, COLO-679",> 4 µM
same,IC50,"[40]; Homo sapiens, CHL-1",3.42 µM
same,IC50,"[41]; Homo sapiens, A204",> 4 µM
same,IC50,"[42]; Homo sapiens, HTC-C3",> 4 µM
